The target in one series is SARS-CoV-2 M^pro (Severe acute respiratory syndrome coronavirus 2, UniProt P0DTD1). The series can be described thus: biochemical. Conditions: for IC50: IC50 against SARS-CoV-2 M^pro, Table 1 and text.
For another series, the system named is SARS-CoV-2. Format: cell-based. Conditions: for Antiviral Potency Index (API): ratio of % inhibition to that of remdesivir at 10 µM; for SARS-CoV-2 Antiviral Assay (%) inhibition of viral replication: 10 µM.
The nature of another series: in vitro. As to conditions: African green monkey, Vero E6 Cytotoxicity (IC50), MTT.
In a further series the test system is Vero E6 cells. Conditions: for IC50: read-out: Vero E6 Cytotoxicity (IC50), MTT.
In a further series the test system is TNF-α. The series can be described thus: Carrageenan-induced paw edema in rats: serum TNF-α. Format: in vivo, Sprague Dawley Rat. Conditions: male rats, 100 mg/kg, 6 h after carrageenan. For orientation: The carrageenan paw model is a standard test of acute inflammation.
The next series has as its system IL-6. The series can be described thus: Carrageenan-induced paw edema in rats: serum IL-6. Conditions: male rats, 100 mg/kg, 6 h after carrageenan. Format: in vivo, Sprague Dawley Rat.
Another series is described as follows: PBS solubility screening. Format: physicochemical. Conditions: for Solubility note: PBS; for solubility: phosphate-buffered saline, aqueous buffer, kinetic from dmso stock.
The nature of series [1]: Enzymatic metabolic stability. It is filed as in vitro ADME.

≈ marks a conversion by molar mass, not a printed value. Bounds are passed on as bounds.

For orientation: IC50 means the concentration that gives 50% inhibition. As for `Cc1nn(-c2ccc(Cl)cc2)c2c1C(c1ccc(Cl)cc1)C(C#N)=C(N)O2` (stereo not drawn) [Compound 18, 6-Amino-1-(4-chlorophenyl)-4-(4-chlorophenyl)-3-methyl-1,4-dihydropyrano[2,3-c]pyrazole-5-carbonitrile], the IC50 was 12.8 ± 0.6 µM at SARS-CoV-2 M^pro and 60.5 ± 4.6 µM in “in vitro”. Besides, the “Antiviral Potency Index (API)” value with SARS-CoV-2 was 0.74.

Turning to `Cc1nn(-c2ccc(Cl)cc2)c2c1C(c1ccc(Br)cc1)C(C#N)=C(N)O2` (stereo not drawn) [Compound 19, 6-Amino-4-(4-bromophenyl)-1-(4-chlorophenyl)-3-methyl-1,4-dihydropyrano[2,3-c]pyrazole-5-carbonitrile], the 50% inhibitory concentration (IC50) against SARS-CoV-2 M^pro was 30.9 ± 1.6 µM; in “in vitro” it was 26.2 ± 20 µM. The “Antiviral Potency Index (API)” value with SARS-CoV-2 was found to be 0.45.

Turning to `Cc1nn(-c2ccc(Cl)cc2)c2c1C(c1ccc(I)cc1)C(C#N)=C(N)O2` (stereo not drawn) [Compound 20, 6-Amino-1-(4-chlorophenyl)-4-(4-iodophenyl)-3-methyl-1,4-dihydropyrano[2,3-c]pyrazole-5-carbonitrile], the IC50 against SARS-CoV-2 M^pro stood at 69.1 ± 3.5 µM; in the series “in vitro”, 103 ± 7.8 µM. The “Antiviral Potency Index (API)” value with SARS-CoV-2 is 0.62.

Take `COc1ccc(C2C(C#N)=C(N)Oc3c2c(C)nn3-c2ccc(Cl)cc2)cc1` (stereo not drawn) [Compound 21, 6-Amino-1-(4-chlorophenyl)-4-(4-methoxyphenyl)-3-methyl-1,4-dihydropyrano[2,3-c]pyrazole-5-carbonitrile]: the concentration for half-maximal inhibition (IC50) on SARS-CoV-2 M^pro was found to be 24.6 ± 1.2 µM; in the series “in vitro”, 78.1 ± 5.9 µM. Moreover, the “Antiviral Potency Index (API)” value with SARS-CoV-2 turned out to be 0.49.

Regarding `Cc1nn(-c2ccc(Cl)cc2)c2c1C(c1ccc(O)cc1)C(C#N)=C(N)O2` (stereo not drawn) [Compound 22, 6-Amino-1-(4-chlorophenyl)-4-(4-hydroxyphenyl)-3-methyl-1,4-dihydropyrano[2,3-c]pyrazole-5-carbonitrile], on SARS-CoV-2 M^pro, the “Mode of binding from kinetic analysis” value is “reversibly and non-competitively with non-covalent interactions”. Further, the half-maximal inhibitory concentration (IC50) is 67.7 ± 5.2 µM with Vero E6 cells and greater than 60 µM in the series “in vitro”.

Turning to `Cc1nn(-c2ccc(Cl)cc2)c2c1C(c1ccc([N+](=O)[O-])cc1)C(C#N)=C(N)O2` (stereo not drawn) [Compound 23, 6-Amino-1-(4-chlorophenyl)-4-(4-nitrophenyl)-3-methyl-1,4-dihydropyrano[2,3-c]pyrazole-5-carbonitrile], the IC50 against SARS-CoV-2 M^pro stood at 9.5 ± 0.51 µM; in the series “in vitro”, 113 ± 8.6 µM. Moreover, the “Antiviral Potency Index (API)” value with SARS-CoV-2 was 0.64.

As for `Cc1nn(-c2ccc(Cl)cc2)c2c1C(c1ccc(-c3ccccc3)cc1)C(C#N)=C(N)O2` (stereo not drawn) [Compound 24, 4-([1,1′-Biphenyl]-4-yl)-6-amino-1-(4-chlorophenyl)-3-methyl-1,4-dihydropyrano[2,3-c]pyrazole-5-carbonitrile], the IC50 against SARS-CoV-2 M^pro worked out at 39.8 ± 2.2 µM; in the series “in vitro”, 60.7 ± 4.6 µM. Besides, the “Antiviral Potency Index (API)” value with SARS-CoV-2 is 0.54.

As for `Cc1nn(-c2ccc(Cl)cc2)c2c1C(c1ccc(F)cc1F)C(C#N)=C(N)O2` (stereo not drawn) [Compound 25, 6-Amino-1-(4-chlorophenyl)-4-(2,4-difluorophenyl)-3-methyl-1,4-dihydropyrano[2,3-c]pyrazole-5-carbonitrile], the IC50 against SARS-CoV-2 M^pro was found to be 192 ± 9.8 µM; in the series “in vitro”, 47.6 ± 3.6 µM. Besides, the “Antiviral Potency Index (API)” value in the series on SARS-CoV-2 is reported as 0.52.

In the series “in vitro”, `Cc1nn(-c2ccc(Cl)cc2)c2c1C(c1cccc(Cl)c1Cl)C(C#N)=C(N)O2` (stereo not drawn) [Compound 26, 6-Amino-1-(4-chlorophenyl)-4-(2,3-dichlorophenyl)-3-methyl-1,4-dihydropyrano[2,3-c]pyrazole-5-carbonitrile] yielded a half-maximal inhibitory concentration (IC50) of 34.8 ± 2.7 µM.

One may read the solubility as the concentration that dissolves in the medium under given conditions. A lower solubility goes with little dissolved substance. As usually defined, the microsomal CLint is the rate of metabolic loss divided by the concentration. High values mean faster metabolism, low ones greater metabolic stability. As usually defined, the half-life is the time needed for the level to fall by half in the phase considered. The low end stands for fast loss, the high end for slow loss. In the case of `Cc1nn(-c2ccc(Cl)cc2)c2c1C(c1ccc(Cl)cc1Cl)C(C#N)=C(N)O2` (stereo not drawn) [Compound 27, 6-Amino-1-(4-chlorophenyl)-4-(2,4-dichlorophenyl)-3-methyl-1,4-dihydropyrano[2,3-c]pyrazole-5-carbonitrile], the “Mode of binding from kinetic analysis” value at SARS-CoV-2 M^pro was “reversibly and non-competitively with non-covalent interactions”. Moreover, in the series with SARS-CoV-2, the “SARS-CoV-2 Antiviral Assay (%) inhibition of viral replication” value worked out at 91.23 ± 0.25% and the “Antiviral Potency Index (API)” value amounted to 0.98. Besides, in the series on TNF-α, the “Serum level of TNF-α” value worked out at 385 pg/mL. For the same compound, in the series with IL-6, the “Serum level of IL-6” value is recorded as 64 pg/mL. In addition, in the series “PBS solubility screening”, the Solubility note result was “Moderate aqueous solubility” and the concentration in solution (solubility) was 22.4 µM (≈ 9.67 µg/mL). In addition, in series [1], the Metabolic rate entry is given as “intermediate clearance rate” and the microsomal CLint came to 54.6 µL/min/mg. The compound further returned a half-life in series [1] (Intrinsic half-life (t1/2)) greater than 2 h. In series [1] (Mean t1/2), this compound registered a half-life of 2.23 h. Also, the IC50 in the series on Vero E6 cells amounted to 62 ± 4.7 µM. In addition, in “in vitro”, the IC50 is greater than 60 µM.

Compound `Cc1nn(-c2ccc(Cl)cc2)c2c1C(c1cc(Cl)ccc1Cl)C(C#N)=C(N)O2` (stereo not drawn) [Compound 28, 6-Amino-1-(4-chlorophenyl)-4-(2,5-dichlorophenyl)-3-methyl-1,4-dihydropyrano[2,3-c]pyrazole-5-carbonitrile] came in with a half-inhibitory concentration (IC50) in the series “in vitro” of 131 ± 10 µM.

Turning to `Cc1nn(-c2ccc(Cl)cc2)c2c1C(c1c(Cl)cccc1Cl)C(C#N)=C(N)O2` (stereo not drawn) [Compound 29, 6-Amino-1-(4-chlorophenyl)-4-(2,6-dichlorophenyl)-3-methyl-1,4-dihydropyrano[2,3-c]pyrazole-5-carbonitrile], the results for the IC50 at SARS-CoV-2 M^pro and in “in vitro” were 44.6 µM and 63.3 ± 4.8 µM, respectively. The “Antiviral Potency Index (API)” value in the series on SARS-CoV-2 came out at 0.50.

For `Cc1nn(-c2ccc(Cl)cc2)c2c1C(c1ccc(Cl)c(Cl)c1)C(C#N)=C(N)O2` (stereo not drawn) [Compound 30, 6-Amino-1-(4-chlorophenyl)-4-(3,4-dichlorophenyl)-3-methyl-1,4-dihydropyrano[2,3-c]pyrazole-5-carbonitrile], in the series on SARS-CoV-2, the “SARS-CoV-2 Antiviral Assay (%) inhibition of viral replication” value was 27.84 ± 0.14% and the “Antiviral Potency Index (API)” value came out at 0.30. Further, the IC50 in the series “in vitro” was 66.5 ± 5.1 µM.

In the case of `CCOc1ccc(C2C(C#N)=C(N)Oc3c2c(C)nn3-c2ccc(Cl)cc2)cc1` (stereo not drawn) [Compound 31, 6-Amino-1-(4-chlorophenyl)-4-(4-ethoxyphenyl)-3-methyl-1,4-dihydropyrano[2,3-c]pyrazole-5-carbonitrile], the IC50 on SARS-CoV-2 M^pro stood at 4.6 ± 0.25 µM; in “in vitro” it was 18.1 ± 1.4 µM. Further, the “Antiviral Potency Index (API)” value in the series on SARS-CoV-2 stood at 0.81.

For `COc1cc(C2C(C#N)=C(N)Oc3c2c(C)nn3-c2ccc(Cl)cc2)ccc1O` (stereo not drawn) [Compound 32, 6-Amino-1-(4-chlorophenyl)-4-(4-hydroxy-3-methoxyphenyl)-3-methyl-1,4-dihydropyrano[2,3-c]pyrazole-5-carbonitrile], in “in vitro”, the 50% inhibitory concentration (IC50) was determined as 45.7 ± 3.5 µM.

With `COc1cc(C2C(C#N)=C(N)Oc3c2c(C)nn3-c2ccc(Cl)cc2)cc(OC)c1OC` (stereo not drawn) [Compound 33, 6-Amino-1-(4-chlorophenyl)-4-(3,4,5-trimethoxyphenyl)-3-methyl-1,4-dihydropyrano[2,3-c]pyrazole-5-carbonitrile], the half-maximal inhibitory concentration (IC50) on SARS-CoV-2 M^pro turned out to be 22.1 ± 1.1 µM; in “in vitro”, 86.2 ± 6.6 µM. Also, in the series on SARS-CoV-2, the “Antiviral Potency Index (API)” value stood at 0.83.

In series [1] (Mean t1/2), `CC(C)NCC(O)COc1cccc2ccccc12` (stereo not drawn) [Propranolol, reference compound] registered a half-life of 2.4 h.

Take `CCC(CC)COC(=O)[C@H](C)N[P@](=O)(OC[C@H]1O[C@@](C#N)(c2ccc3c(N)ncnn23)[C@H](O)[C@@H]1O)Oc1ccccc1` [Remdesivir, reference compound]: the “Cytotoxicity to Vero E6 cells” value with Vero E6 cells (at 60 μM) is “no cytotoxicity”. The IC50 in “in vitro” was determined as 61.8 ± 4.7 µM.

Take `CO[C@H]1/C=C/O[C@@]2(C)Oc3c(C)c(O)c4c(O)c(c(/C=N/N5CCN(C)CC5)c(O)c4c3C2=O)NC(=O)/C(C)=C\C=C\[C@H](C)[C@H](O)[C@@H](C)[C@@H](O)[C@@H](C)[C@H](OC(C)=O)[C@@H]1C` [Rifampicin, reference compound]: in the series “PBS solubility screening”, the Solubility note entry is recorded as “Reference with good solubility” and the concentration in solution (solubility) came to 179 µM (≈ 148 µg/mL).

For the origin of these results see publication PMC9671780 (Bioorganic Chemistry, 2022).
